Source: patent publication US9399645B2, “Inhibitors of HIV replication” (Boehringer Ingelheim International GmbH, priority 2011, dated 2016)
pEC50: −log10 of the molar value.

Tests used:
HIV-1 = assay: C8166 HIV-1 Luciferase Assay (EC50); assay type: cell-based; conditions: Human immunodeficiency virus 1, C8166, 72 h
Description: C8166 HIV-1 Luciferase Assay (Ec50)
The assay used to measure inhibition of HIV replication is as described in WO 2004/050643, pages 73-75, incorporated herein by reference, with the following modifications:
Serial dilutions of HIV-1 inhibitors are prepared in complete media from DMSO stock solutions. Eleven serial dilutions of desired concentration are prepared in a 1 mL deep well titer plate (96 wells). The 12th well contains complete media with no inhibitor and serves as the positive control. All samples contain the same concentration of DMSO (<0.1% DMSO). Inhibitor is added, to triplicate wells, of a 96 well tissue culture treated clear view black microtiter plate (Corning Costar catalogue #3904). The total volume per well is 200 μL of media containing the cells and inhibitor. The last row is reserved for uninfected C8166 LTRIuc cells to serve as the background blank control and the first row is media alone.
Count C8166 LTRIuc cells and place in a minimal volume of complete RPMI 1640 in a tissue culture flask (ex. 30×10^6 cells in 10 mL media/25 cm^2 flask). Infect cells with HIV-1 at a moi of 0.005. Incubate cells for 1.5 h at 37° C. on a rotating rack in a 5% CO2 incubator. Resuspend cells in complete RPMI to give a final concentration of 25,000-cells/well. Add cells to wells of 96 well microtiter plate containing inhibitors. Add 25,000 uninfected C8166-LTRIuc cells/well in 200 μL complete RPMI to last row for background control. Incubate cells at 37° C. in 5% CO2 incubator for 3 days.
50 μL Steady Glo (luciferase substrate T112=5 hours Promega catalogue # E2520) is added to each well of the 96 well plate. The relative light units (RLU) of luciferase are determined using a luminescence plate reader. The calculated % inhibition values are used to determine EC50, slope factor (n) and maximum inhibition (Imax).

[1] = Caco-2 Permeability Assay; assay type: in vitro ADME; conditions: human, apparent permeability A to B, compound at 10 μM, apical buffer pH 6.0, basolateral buffer pH 7.4, read-out: Papp (cm/sec, *10^−6)
Excerpt: Caco-2 Permeability Assay Caco-2 cells are purchased from Cell Culture Services as frozen instant cells at a concentration of 1*10^7 cells/vial. DMEM+glutamax-I culture media is purchased from Gibco (10569). Fetal bovine serum (FBS) is purchased from HyClone (SH30396.03). Pennicilin/Streptomycin antibiotics are purchased from Gibco (15140). MEM non-essential amino acids are purchased from Gibco (11140). Hank's balanced salt solution (HBSS) is purchased from Gibco (14025). Bovine serum albumin (BSA) is purchased from Sigma-Aldrich (A7906). MES low moisture is purchased from Sigma-Aldrich (M3671). HEPES is purchased from Sigma-Aldrich (H3375). Dimethyl Sulfoxide (DMSO) is purchased from EMD (MX1457-6). Complete DMEM media is prepared by adding 1 L of FBS, 100 mL of pen/strep and 110 mL of MEM non essential amino acids to 10 L of DMEM+glutamax-I. […] Caco-2 cells are seeded on HTS transwell 24-well plates purchased from Corning (3397). These polycarbonate membrane plates have a diameter of […] and pore size of 0.4 μm. The Caco-2 cells vial is thawed in a 37° C. water bath until only a small ice pellet is left. The vial is then transferred to the laminar flow hood and its exterior is extensively washed with 70% ethanol. The total content of the vial (2 mL) is transferred into a 50 mL tube containing 38 mL of complete DMEM. […] The seeding is done by the Hamilton star robotic station which is controlled with the Venus program. Each well will receive 600 μL of complete DMEM on its basolateral side and 200 μL of cells on its apical side. Each well receives 50 000 cells. The 24-well plates are then returned to an automated Liconic STX110 incubator set at 37° C., 5% CO2 and 100% humidity. The culture media for the cells is changed every two days except on weekends. These cells are maintained for a period of two weeks prior to the running of the permeability assay. Permeability assays are usually performed between day 15 and 18 after the initial seeding. […] Controls for the assay are mannitol for tight junction determination and Digoxin for efflux transporter (p-glycoprotein) expression. On the day of the assay, each compound is diluted to 10 μM in the buffer (apical for A to B). 6 μl of the 5 mM DMSO stock is added to 3 mL of the buffer in a 24-well 10 mL deep plate covered with a lid. The plate containing all the diluted compounds is spun for 10 min at 3000 rpm in a Rotanta 46 RSC centrifuge from Hettich to remove unsoluble compound. This dilution is used to add at the start of the incubation. Each compound is tested in duplicate. On the day of the assay, the culture media of the 24-well plate is removed and replaced with warm HBSS. The HBSS is then also removed and the Apical and Basolatral buffer are added to their respective side of the transwells. These steps are performed by the Hamilton Star robotic station. The plate is then placed in a 37° C. incubator and is left to equilibrate for 30 min. After 30 min of incubation a background sample (25 μL from each well) is taken from the receiver side (Basolateral for A to B), and replenished with warm buffer. These samples and all others afterwards are kept in a 96-well 1 mL plate. To start the assay, the donor compartment (apical for A to B) is emptied and replaced with new buffer containing the compound at 10 μM. Once the compounds are added, the plate is returned to the 37° C. incubator and the timer is started. In order to determine how much compound is actually added to each well, a 50 μL sample is taken from each compound dilution, this sample is refered to as the load. These steps and the following are performed by the Tecan Freedom EVO robotic station controlled via the Gemini software. For A-to-B Assay: Samples (190 μL) are taken from each basolateral (receiver) chamber at time points 0, 60, 120 and 180 min or at time points 0, 30, 60 and 90 min. From the 190 μL taken, 50 μL is transferred to the receiving plate and 140 μL is discarded.

Compound: CC[C@H]1C[C@@H](n2c(=O)nc(-c3cnn(C)c3)c3oc4cnc(-c5cnc(C)o5)cc4c32)CCO1 [Compound 1088]
- pEC50 (HIV-1): 7.44
- Papp A→B at 10 μM [1]: 22.9 ×10⁻⁶ cm/s

Compound: CC[C@H]1C[C@@H](n2c(=O)nc(-c3cnn(C)c3)c3oc4ccc(-c5cn(C)nc5C)nc4c32)CCO1 [Compound 1002]
- pEC50 (HIV-1): 8.07
- Papp A→B at 10 μM [1]: 14.5 ×10⁻⁶ cm/s

Compound: CC[C@H]1C[C@@H](n2c(=O)nc(-c3cnn(C)c3)c3oc4cnc(-n5ccnc5)cc4c32)CCO1 [Compound 1090]
- pEC50 (HIV-1): 6.80
- Papp A→B at 10 μM [1]: 8.7 ×10⁻⁶ cm/s

Compound: CC[C@H]1C[C@@H](n2c(=O)nc(-c3cnn(C)c3)c3oc4c(F)cc(-c5cn(C)cn5)cc4c32)CCO1 [Compound 1097]
- pEC50 (HIV-1): 8.41
- Papp A→B at 10 μM [1]: 37.1 ×10⁻⁶ cm/s

Compound: CC[C@H]1C[C@@H](n2c(=O)nc(-c3cnn(C)c3)c3oc4cc(Cl)c(-c5cnn(C)c5)cc4c32)CCO1 [Compound 1048]
- pEC50 (HIV-1): 8.22
- Papp A→B at 10 μM [1]: 22.1 ×10⁻⁶ cm/s

Compound: C[C@@H]1C[C@H](n2c(=O)nc(-c3cnn(C)c3)c3oc4cc(C#N)c(-c5cnn(C)c5)nc4c32)C[C@H](C)O1 [Compound 1016]
- pEC50 (HIV-1): 7.05
- Papp A→B at 10 μM [1]: 15.9 ×10⁻⁶ cm/s

Compound: CC[C@H]1C[C@@H](n2c(=O)nc(-c3cnn(C)c3)c3oc4cc(F)c(-c5cnn(C)c5)cc4c32)CCO1 [Compound 1042]
- pEC50 (HIV-1): 8.16
- Papp A→B at 10 μM [1]: 23.4 ×10⁻⁶ cm/s

Compound: Cn1cc(-c2ccc3oc4c(-c5ccc(N6CCOCC6)nc5)nc(=O)n(CCC5CCCO5)c4c3c2)cn1 (stereo not drawn) [Compound 1026]
- pEC50 (HIV-1): 7.55
- Papp A→B at 10 μM [1]: 7.4 ×10⁻⁶ cm/s

Compound: CC[C@H]1C[C@@H](n2c(=O)nc(-c3cnn(C)c3)c3oc4cc(OC)c(-c5cnn(C)c5)cc4c32)CCO1 [Compound 1055]
- pEC50 (HIV-1): 8.44
- Papp A→B at 10 μM [1]: 8.42 ×10⁻⁶ cm/s

Compound: CNc1ccc(-c2nc(=O)n(CCC3CCCO3)c3c2oc2ccc(-c4cnco4)cc23)cn1 (stereo not drawn) [Compound 1027]
- pEC50 (HIV-1): 7.27
- Papp A→B at 10 μM [1]: 12.4 ×10⁻⁶ cm/s

Compound: CC[C@H]1C[C@@H](n2c(=O)nc(-c3cnn(C)c3)c3oc4cc(C#N)c(-c5cnn(C)c5)nc4c32)C[C@@H](C)O1 [Compound 1017]
- pEC50 (HIV-1): 7.66
- Papp A→B at 10 μM [1]: 23.6 ×10⁻⁶ cm/s

Compound: CC[C@H]1C[C@@H](n2c(=O)nc(-c3cnn(C)c3)c3oc4ccc(-c5cnco5)nc4c32)CCO1 [Compound 1007]
- pEC50 (HIV-1): 8.08
- Papp A→B at 10 μM [1]: 19.7 ×10⁻⁶ cm/s

Compound: CNc1ccc(-c2nc(=O)n(CCC3CCCO3)c3c2oc2ccc(-c4cncs4)cc23)cn1 (stereo not drawn) [Compound 1028]
- pEC50 (HIV-1): 7.30
- Papp A→B at 10 μM [1]: 19.9 ×10⁻⁶ cm/s

Compound: CC[C@H]1C[C@@H](n2c(=O)nc(-c3cnn(C)c3)c3oc4ccc(-c5cccnc5)cc4c32)CCO1 [Compound 1040]
- pEC50 (HIV-1): 7.89
- Papp A→B at 10 μM [1]: 19.2 ×10⁻⁶ cm/s

Compound: CC[C@H]1C[C@@H](n2c(=O)nc(-c3cnn(C)c3)c3oc4ncc(-c5cnn(C)c5)cc4c32)CCO1 [Compound 1061]
- pEC50 (HIV-1): 7.69
- Papp A→B at 10 μM [1]: 9.3 ×10⁻⁶ cm/s

Compound: CC[C@@H]1C[C@H](n2c(=O)nc(-c3ccc(NC)nc3)c3oc4ccc(-c5cnn(C)c5)cc4c32)CO1 (racemic) [Compound 1037]
- pEC50 (HIV-1): 7.99
- Papp A→B at 10 μM [1]: 8.2 ×10⁻⁶ cm/s

Compound: CC[C@H]1C[C@@H](n2c(=O)nc(-c3cnn(C)c3)c3oc4cc(C#N)c(-c5cn(C)cn5)cc4c32)CCO1 [Compound 1094]
- pEC50 (HIV-1): 8.04
- Papp A→B at 10 μM [1]: 8.3 ×10⁻⁶ cm/s

Compound: CC[C@H]1C[C@@H](n2c(=O)nc(-c3cnn(C)c3)c3oc4c(C)cc(-c5cnn(C)c5)cc4c32)CCO1 [Compound 1058]
- pEC50 (HIV-1): 9.22
- Papp A→B at 10 μM [1]: 16.6 ×10⁻⁶ cm/s

Compound: CC[C@H]1C[C@@H](n2c(=O)nc(-c3cnn(C)c3)c3oc4cc(C#N)c(-c5cnn(C)c5)nc4c32)CCO1 [Compound 1015]
- pEC50 (HIV-1): 8.52
- Papp A→B at 10 μM [1]: 20.7 ×10⁻⁶ cm/s

Compound: C[C@@H]1C[C@H](n2c(=O)nc(-c3cnn(C)c3)c3oc4cnc(-c5cnn(C)c5)cc4c32)C[C@H](C)O1 [Compound 1084]
- pEC50 (HIV-1): 6.92
- Papp A→B at 10 μM [1]: 20.5 ×10⁻⁶ cm/s

Compound: CC[C@H]1C[C@@H](n2c(=O)nc(-c3ccc(NC)nc3)c3oc4ncc(-c5cnn(C)c5)cc4c32)CCO1 [Compound 1069]
- pEC50 (HIV-1): 8.11

Compound: CC[C@H]1C[C@@H](n2c(=O)nc(-c3cnn(C)c3)c3oc4cc(C#N)c(-c5cnn(C)c5)cc4c32)CCO1 [Compound 1049]
- pEC50 (HIV-1): 7.82
